# Where two headings read alike, the source gives them in different places.
# Molecular target: T1, human GR (Homo sapiens, UniProt P04150)
# T1 sequence (P04150 1-777): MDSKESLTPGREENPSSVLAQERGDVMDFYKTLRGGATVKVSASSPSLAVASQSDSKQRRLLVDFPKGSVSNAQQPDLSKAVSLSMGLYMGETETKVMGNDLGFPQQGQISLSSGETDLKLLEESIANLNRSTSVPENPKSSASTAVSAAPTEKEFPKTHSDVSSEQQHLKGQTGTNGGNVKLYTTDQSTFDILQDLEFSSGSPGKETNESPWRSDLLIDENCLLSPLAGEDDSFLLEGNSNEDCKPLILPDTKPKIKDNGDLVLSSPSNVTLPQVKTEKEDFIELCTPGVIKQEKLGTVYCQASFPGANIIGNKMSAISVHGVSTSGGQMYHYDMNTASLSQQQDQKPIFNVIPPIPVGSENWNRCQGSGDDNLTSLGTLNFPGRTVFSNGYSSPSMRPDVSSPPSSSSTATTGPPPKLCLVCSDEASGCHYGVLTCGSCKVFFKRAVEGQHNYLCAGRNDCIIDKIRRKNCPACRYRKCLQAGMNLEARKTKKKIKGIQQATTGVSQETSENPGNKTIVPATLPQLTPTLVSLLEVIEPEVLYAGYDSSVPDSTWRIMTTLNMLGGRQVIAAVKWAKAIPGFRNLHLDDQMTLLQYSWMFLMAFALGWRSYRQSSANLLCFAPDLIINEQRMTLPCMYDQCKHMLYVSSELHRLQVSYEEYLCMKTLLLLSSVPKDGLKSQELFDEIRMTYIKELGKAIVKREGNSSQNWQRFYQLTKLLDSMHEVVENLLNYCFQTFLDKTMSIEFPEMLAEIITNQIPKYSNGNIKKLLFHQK
# Assay: Transrepression Assay (GITAR), TNFα-β-lactamase reporter in U937 cells
# Format: cell-based
# Parameters: U937 cells contain an endogenous glucocorticoid receptor (GR); endogenous in cells; host or cells: U937 cells stably transfected with the TNF-alpha promoter/beta-lactamase reporter
# Conditions: for GITAR > GRAMM % SEP: GITAR Emax minus GRAMMER Emax; for EC50: U937 cells, inflection point, read-out: Transrepression U937 Cells GITAR IP
# Summary of the method: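 U937 cells stably carrying a TNF-α promoter–β-lactamase reporter, with endogenous GR, are preincubated with compound 30–45 min at 37 °C, then stimulated with PMA (5 ng/ml final) and LPS (100 ng/ml final) overnight (~18 hr). β-Lactamase is read with CCF2-AM substrate; repression by 100 nM dexamethasone defines 100%.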
# [1] = U-937, U937 cells, maximum activity, read-out: Transrepression U937 Cells GITAR Emax
# [2] = U-937, activity repressed by 100 nM dexamethasone alone set as 100%, read-out: maximal activity in the transrepression (GITAR) assay
SMILES,GITAR > GRAMM % SEP [%],EC50 [nM],Emax [1] [%],Emax [2] [%]
"C[C@]12Cc3cnn(-c4ccc(F)cc4)c3C=C1CC[C@@H]2CN(CCc1ccccc1O)S(=O)(=O)Cc1cccnc1 [Example 131, N-{[(4αR,5S)-1-(4-fluorophenyl)-4α-methyl-1,4,4α,5,6,7-hexahydrocyclopenta[f]indazol-5-yl]methyl}-N-[2-(2-hydroxyphenyl)ethyl]-1-pyridin-3-ylmethanesulfonamide]",22.9,437,60.3,> 5
"COc1ccccc1CCN(C[C@H]1CCC2=Cc3c(cnn3-c3ccccc3)C[C@@]21C)S(=O)(=O)CC(F)(F)F [Example 139, 2,2,2-trifluoro-N-[2-(2-methoxyphenyl)ethyl]-N-{[(4αR,5S)-4α-methyl-1-phenyl-1,4,4α,5,6,7-hexahydrocyclopenta[f]indazol-5-yl]methyl}ethanesulfonamide]",1.7,798,72.4,> 5
"C[C@]12Cc3cnn(-c4ccc(F)cc4)c3C=C1CC[C@@H]2CN(CC(O)C(F)(F)F)S(=O)(=O)Cc1ccccc1C(N)=O (stereo partly drawn) [Example 167, 2-({[{[(4αR,5S)-1-(4-fluorophenyl)-4α-methyl-1,4,4α,5,6,7-hexahydrocyclopenta[f]indazol-5-yl]methyl}(3,3,3-trifluoro-2-hydroxypropyl)amino]sulfonyl}methyl) benzamide]",12.5,159,87.4,> 5
"Cn1cc(S(=O)(=O)N(CC(O)c2ccccn2)C[C@H]2CCC3=Cc4c(cnn4-c4ccc(F)cc4)C[C@@]32C)c(C(F)(F)F)n1 (stereo partly drawn) [Example 157, N-{[(4αR,5S)-1-(4-fluorophenyl)-4α-methyl-1,4,4α,5,6,7-hexahydrocyclopenta[f]indazol-5-yl]methyl}-N-(2-hydroxy-2-pyridin-2-ylethyl)-1-methyl-3-(trifluoromethyl)-1H-pyrazole-4-sulfonamide]",30.0,29.1,93.6,> 5
"C[C@]12Cc3cnn(-c4ccc(F)cc4)c3C=C1CC[C@@H]2CN(CC(O)C(F)(F)F)S(=O)(=O)Cc1ccccc1C(=O)O (stereo partly drawn) [Example 164, 2-({[{[(4αR,5S)-1-(4-fluorophenyl)-4α-methyl-1,4,4α,5,6,7-hexahydrocyclopenta[f]indazol-5-yl]methyl}(3,3,3-trifluoro-2-hydroxypropyl)amino]sulfonyl}methyl)benzoic acid]",23.0,1250,81.3,> 5
"COC(=O)c1cc(Cl)ccc1CCN(C[C@H]1CCC2=Cc3c(cnn3-c3ccc(F)cc3)C[C@@]21C)S(=O)(=O)CC(F)(F)F [Example 160, methyl 5-chloro-2-(2-{{[(4αR,5S)-1-(4-fluorophenyl)-4α-methyl-1,4,4α,5,6,7-hexahydrocyclopenta[f]indazol-5-yl]methyl}[(2,2,2-trifluoroethyl)sulfonyl]amino}ethyl)benzoate]",10.8,508,15.1,> 5
"C[C@H](O)CN(C[C@H]1CCC2=Cc3c(cnn3-c3ccc(F)cc3)C[C@@]21C)S(=O)(=O)c1ccc(F)c(Cl)c1 [Example 112, 3-chloro-4-fluoro-N-{[(4αR,5S)-1-(4-fluorophenyl)-4α-methyl-1,4,4α,5,6,7-hexahydrocyclopenta[f]indazol-5-yl]methyl}-N-[(2S)-2-hydroxypropyl]benzenesulfonamide]",32.3,337,65.7,> 5

# Continued by falling EC50, values first:
GITAR > GRAMM % SEP [%],EC50 [nM],Emax [1] [%],Emax [2] [%],SMILES
31.2,643,57.4,> 5,"C[C@@H](O)CN(C[C@H]1CCC2=Cc3c(cnn3-c3ccc(F)cc3)C[C@@]21C)S(=O)(=O)c1ccc(F)c(Cl)c1 [Example 115, 3-chloro-4-fluoro-N-{[(4αR,5S)-1-(4-fluorophenyl)-4α-methyl-1,4,4α,5,6,7-hexahydrocyclopenta[f]indazol-5-yl]methyl}-N-[(2R)-2-hydroxypropyl]benzenesulfonamide]"
21.3,626,26.2,> 5,"C[C@]12Cc3cnn(-c4ccc(F)cc4)c3C=C1CC[C@@H]2CN(CC1CCCO1)S(=O)(=O)Cc1cccc(C(F)(F)F)c1 (stereo partly drawn) [Example 110, N-{[(4αR,5S)-1-(4-fluorophenyl)-4α-methyl-1,4,4α,5,6,7-hexahydrocyclopenta[f]indazol-5-yl]methyl}-N-(tetrahydrofuran-2-ylmethyl)-1-[3-(trifluoromethyl)phenyl]methanesulfonamide]"
15.3,549,71.7,> 5,"C[C@]12Cc3cnn(-c4ccc(F)cc4)c3C=C1CC[C@@H]2CN(CCc1ccccn1)S(=O)(=O)Cc1ccncc1 [Example 166, N-{[(4αR,5S)-1-(4-fluorophenyl)-4α-methyl-1,4,4α,5,6,7-hexahydrocyclopenta[f]indazol-5-yl]methyl}-1-pyridin-4-yl-N-(2-pyridin-2-ylethyl)methanesulfonamide]"
39.7,400,62.2,> 5,"C[C@]12Cc3cnn(-c4ccccc4)c3C=C1CC[C@@H]2CN(CCc1ccccc1O)S(=O)(=O)Cc1cccnc1 [Example 141, N-[2-(2-hydroxyphenyl)ethyl]-N-{[(4αR,5S)-4α-methyl-1-phenyl-1,4,4α,5,6,7-hexahydrocyclopenta[f]indazol-5-yl]methyl}-1-pyridin-3-ylmethanesulfonamide]"
37.2,263,52.4,> 5,"C[C@]12Cc3cnn(-c4ccc(F)cc4)c3C=C1CC[C@@H]2CN(CCc1ccccn1)S(=O)(=O)Cc1ccccc1C(F)(F)F [Example 153, N-{[(4αR,5S)-1-(4-fluorophenyl)-4α-methyl-1,4,4α,5,6,7-hexahydrocyclopenta[f]indazol-5-yl]methyl}-N-(2-pyridin-2-ylethyl)-1-[2-(trifluoromethyl)phenyl]methanesulfonamide]"
15.0,229,19.5,> 5,"Cn1cc(S(=O)(=O)N(CC(O)C(F)F)C[C@H]2CCC3=Cc4c(cnn4-c4ccc(F)cc4)C[C@@]32C)c(C(F)(F)F)n1 (stereo partly drawn) [Example 156, N-(3,3-difluoro-2-hydroxypropyl)-N-{[(4αR,5S)-1-(4-fluorophenyl)-4α-methyl-1,4,4α,5,6,7-hexahydrocyclopenta[f]indazol-5-yl]methyl}-1-methyl-3-(trifluoromethyl)-1H-pyrazole-4-sulfonamide]"
15.1,202,83,> 5,"COc1ccc(CCN(C[C@H]2CCC3=Cc4c(cnn4-c4ccc(F)cc4)C[C@@]32C)S(=O)(=O)CC(F)(F)F)cc1 [Example 127, 2,2,2-trifluoro-N-{[(4αR,5S)-1-(4-fluorophenyl)-4α-methyl-1,4,4α,5,6,7-hexahydrocyclopenta[f]indazol-5-yl]methyl}-N-[2-(4-methoxyphenyl)ethyl]ethanesulfonamide]"
14.2,192,79.1,> 5,"C[C@]12Cc3cnn(-c4ccc(F)cc4)c3C=C1CC[C@@H]2CN(CCc1ccccc1F)S(=O)(=O)c1ccccc1Cl [Example 100, 2-chloro-N-[2-(2-fluorophenyl)ethyl]-N-{[(4αR,5S)-1-(4-fluorophenyl)-4α-methyl-1,4,4α,5,6,7-hexahydrocyclopenta[f]indazol-5-yl]methyl}benzenesulfonamide]"
1.0,153,10.2,> 5,"CCCCCCCCS(=O)(=O)N(CCc1ccccc1F)C[C@H]1CCC2=Cc3c(cnn3-c3ccc(F)cc3)C[C@@]21C [Example 104, N-[2-(2-fluorophenyl)ethyl]-N-{[(4αR,5S)-1-(4-fluorophenyl)-4α-methyl-1,4,4α,5,6,7-hexahydrocyclopenta[f]indazol-5-yl]methyl}octane-1-sulfonamide]"
7.7,94.9,81.2,> 5,"C[C@]12Cc3cnn(-c4ccc(F)cc4)c3C=C1CC[C@@H]2CN(CCc1ccccc1O)S(=O)(=O)c1ccccc1F [Example 116, 2-fluoro-N-{[(4αR,5S)-1-(4-fluorophenyl)-4α-methyl-1,4,4α,5,6,7-hexahydrocyclopenta[f]indazol-5-yl]methyl}-N-[2-(2-hydroxyphenyl)ethyl]benzenesulfonamide]"

# Reference: US8299048B2, “Hexahydrocyclopentyl[f]indazole sulfonamides and derivatives thereof as selective glucocorticoid receptor modulators” (Merck Sharp & Dohme Corp., priority 2008, dated 2012)
